Here are results for ten molecules from publication PMC9769921, “Characteristics of the GlnH and GlnX Signal Transduction Proteins Controlling PknG-Mediated Phosphorylation of OdhI and 2-Oxoglutarate Dehydrogenase Activity in Corynebacterium glutamicum” (Microbiology Spectrum, 2022).

Values joined by “and” are separate entries in the source; they are usually repeats but may differ in a detail not shown here. Identical values can stand only once.

In one data set the target is His10-GlnHΔSP (GlnH) (Corynebacterium glutamicum, UniProt Q8NM30). Put plainly: Isothermal titration calorimetry with His10-GlnHΔSP. The class given is binding. Conditions: for binding to His10-GlnHΔSP / mean observed enthalpy change: ITC, 40 mM HEPES pH 7, 100 mM KCl; for binding to His10-GlnHΔSP: 10 mM MgCl2; for mean observed enthalpy change: 10 mM MgCl2, 25°C. The source says: Based on the similarity to the glutamine-binding protein GlnH of E. coli, which is part of the ABC transporter GlnHPQ ([28], [29]), the protein encoded by cg3045 in the C. glutamicum genome was initially annotated as a putative glutamine binding protein ([20]). […] To characterize the ligand binding properties of GlnH, a soluble protein version lacking the N-terminal signal peptide and the lipobox motif was overproduced in E. coli BL21(DE3) using the expression plasmid pET-TEV-glnHΔSP and purified by Ni^2+-chelate affinity chromatography. The His-tagged protein was used for interaction studies with different potential ligands using isothermal titration calorimetry (ITC). Based on the annotation, L-glutamine was first tested as a ligand, but no binding to His10-GlnHΔSP was observed under the conditions used (40 mM HEPES, pH 7, 100 mM KCl, 10 mM MgCl2). In contrast, L-aspartate and L-glutamate served as ligands for His10-GlnHΔSP, although with moderate affinity. […] In both cases, binding was exothermic with mean observed enthalpy changes of −18.5 ± 4.3 kJ/mol for L-aspartate and −17.5 ± 5.0 kJ/mol for L-glutamate. […] In Fig. 6, representative ITC experiments are shown for the five ligands tested.
Purified His10-GlnHΔSP was dialyzed overnight against a 500-fold excess of dialysis buffer (40 mM HEPES, 100 mM KCl, 10 mM MgCl2, pH 7.0). Stock solutions of the potential ligands L-aspartic acid, L-glutamic acid, L-asparagine, L-glutamine, and 2-oxoglutarate were prepared in dialysis buffer, and the pH was adjusted to pH 7.0 using KOH. ITC measurements were performed with a MicroCal PEAQ-ITC instrument (Malvern Panalytical, Malvern, Great Britain) operated at 25°C. Protein concentrations between 30 μM and 75 μM were used together with ligand concentrations of 7.5 mM to 50 mM. Prior to being filled with 300 μL protein solution, the measuring cell was rinsed with dialysis buffer, while the syringe was filled with 75 μL ligand solution. An ITC run was started with an initial injection of 0.4 μL followed by 12 injections of 3 μL each. In addition, control experiments with ligand solution titrated into the dialysis buffer were performed. The data were analyzed using MicroCal ITC analysis software (Malvern Panalytical), and a fixed 1:1 binding stoichiometry was assumed to determine the binding affinity.
(In general: Isothermal titration calorimetry measures the heat released or taken up as one component is titrated into another.)

For the next data set, the system named is C. glutamicum. Further details: method as in PMID 15870446. Conditions: cited from earlier work.
The test system of data set [1] is GlnH of C. glutamicum. The arrangement: method as in PMID 30065086. The conditions noted are these: cited from earlier work.
The next data set concerns the target His10-GlnHcore (GlnH) (Corynebacterium glutamicum, UniProt Q8NM30). Put plainly: Intrinsic tryptophan fluorescence ligand binding, parental His10-GlnHcore.
In a further data set the target is M. tuberculosis GlnH. The arrangement: method as in PMID 30065086. Conditions: cited from earlier work.
Data set [2] concerns the target GlnH of C. glutamicum. Further details: method as in PMID 30065086. Conditions: change in intrinsic tryptophan fluorescence; cited from earlier work.
Data set [3] concerns the target T1, OdhA subunit of the 2-oxoglutarate dehydrogenase complex (ODH) (Corynebacterium glutamicum (endogenous in C. glutamicum ΔodhI)) (UniProt Q8NRC3).
T1 sequence: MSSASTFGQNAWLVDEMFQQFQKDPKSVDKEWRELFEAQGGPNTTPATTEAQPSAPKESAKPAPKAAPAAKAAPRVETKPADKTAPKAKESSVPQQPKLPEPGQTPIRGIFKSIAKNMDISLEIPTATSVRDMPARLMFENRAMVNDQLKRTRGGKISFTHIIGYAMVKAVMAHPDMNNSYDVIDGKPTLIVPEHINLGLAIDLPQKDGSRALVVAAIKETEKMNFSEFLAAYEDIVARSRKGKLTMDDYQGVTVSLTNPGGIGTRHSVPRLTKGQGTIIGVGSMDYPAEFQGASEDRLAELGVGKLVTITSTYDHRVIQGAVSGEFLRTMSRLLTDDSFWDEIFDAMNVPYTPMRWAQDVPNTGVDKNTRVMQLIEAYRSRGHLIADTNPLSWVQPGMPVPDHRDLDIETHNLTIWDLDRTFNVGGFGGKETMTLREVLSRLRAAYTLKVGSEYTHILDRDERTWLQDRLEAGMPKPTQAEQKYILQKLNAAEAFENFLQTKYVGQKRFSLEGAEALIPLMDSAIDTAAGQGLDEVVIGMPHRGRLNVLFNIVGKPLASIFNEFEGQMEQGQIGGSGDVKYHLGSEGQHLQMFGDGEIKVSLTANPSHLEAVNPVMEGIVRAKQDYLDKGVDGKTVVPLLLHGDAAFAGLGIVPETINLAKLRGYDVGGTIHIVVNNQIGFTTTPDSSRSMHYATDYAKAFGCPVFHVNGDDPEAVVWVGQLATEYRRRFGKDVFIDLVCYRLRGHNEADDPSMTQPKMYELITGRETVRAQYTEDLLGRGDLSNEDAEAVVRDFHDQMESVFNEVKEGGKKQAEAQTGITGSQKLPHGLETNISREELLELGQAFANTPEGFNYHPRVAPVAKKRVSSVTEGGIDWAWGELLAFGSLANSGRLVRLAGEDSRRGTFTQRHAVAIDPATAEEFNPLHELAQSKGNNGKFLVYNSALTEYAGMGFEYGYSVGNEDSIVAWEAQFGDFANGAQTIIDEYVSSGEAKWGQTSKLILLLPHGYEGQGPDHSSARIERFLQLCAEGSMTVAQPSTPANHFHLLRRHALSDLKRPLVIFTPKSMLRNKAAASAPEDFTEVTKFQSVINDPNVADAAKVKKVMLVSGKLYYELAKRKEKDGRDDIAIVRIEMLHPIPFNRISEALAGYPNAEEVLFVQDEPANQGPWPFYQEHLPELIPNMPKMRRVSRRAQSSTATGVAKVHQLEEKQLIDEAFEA

The target of data set [4] is 2-oxoglutarate dehydrogenase complex (ODH) (Corynebacterium glutamicum, UniProt Q8NRC3). Put plainly: ODH activity of cell-free extracts of C. glutamicum ΔodhI with added OdhI variants (photometric, NADH formation). The conditions noted are these: 100% = 135 ± 12 nmol min^−1 (mg protein)^−1 without added OdhI.
Chain of 2-oxoglutarate dehydrogenase complex (ODH) (Q8NTE1 whole entry, one chain of several): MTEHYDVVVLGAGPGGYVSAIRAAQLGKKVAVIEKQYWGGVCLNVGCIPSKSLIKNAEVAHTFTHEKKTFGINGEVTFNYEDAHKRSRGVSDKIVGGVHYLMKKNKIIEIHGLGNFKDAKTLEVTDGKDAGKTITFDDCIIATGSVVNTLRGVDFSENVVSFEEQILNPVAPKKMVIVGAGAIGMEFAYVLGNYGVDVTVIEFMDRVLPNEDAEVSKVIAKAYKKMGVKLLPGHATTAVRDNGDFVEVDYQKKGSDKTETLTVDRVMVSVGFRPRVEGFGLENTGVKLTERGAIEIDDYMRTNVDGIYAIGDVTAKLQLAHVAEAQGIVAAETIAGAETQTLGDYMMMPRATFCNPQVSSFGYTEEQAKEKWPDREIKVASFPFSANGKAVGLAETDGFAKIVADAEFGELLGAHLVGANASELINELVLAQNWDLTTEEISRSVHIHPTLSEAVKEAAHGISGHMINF
Chain of 2-oxoglutarate dehydrogenase complex (ODH) (Q8NNJ2 whole entry, one chain of several, further chain): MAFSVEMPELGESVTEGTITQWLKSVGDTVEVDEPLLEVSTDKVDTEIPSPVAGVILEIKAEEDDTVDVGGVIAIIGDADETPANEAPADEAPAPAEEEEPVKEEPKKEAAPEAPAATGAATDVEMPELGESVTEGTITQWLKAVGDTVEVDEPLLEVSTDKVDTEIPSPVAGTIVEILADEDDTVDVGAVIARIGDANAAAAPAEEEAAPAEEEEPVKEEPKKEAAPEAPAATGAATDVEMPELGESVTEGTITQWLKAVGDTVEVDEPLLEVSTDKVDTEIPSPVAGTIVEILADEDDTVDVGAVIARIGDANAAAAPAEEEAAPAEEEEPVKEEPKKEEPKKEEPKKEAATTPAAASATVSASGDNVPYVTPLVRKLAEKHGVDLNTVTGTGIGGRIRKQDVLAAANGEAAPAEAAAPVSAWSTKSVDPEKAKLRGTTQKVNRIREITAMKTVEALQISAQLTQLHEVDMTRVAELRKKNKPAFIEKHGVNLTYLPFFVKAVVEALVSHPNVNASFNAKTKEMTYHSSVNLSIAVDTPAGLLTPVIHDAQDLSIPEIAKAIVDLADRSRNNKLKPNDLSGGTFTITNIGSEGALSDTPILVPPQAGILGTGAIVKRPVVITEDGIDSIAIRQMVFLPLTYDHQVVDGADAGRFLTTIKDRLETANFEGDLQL
Protocol: Determination of the ODH activity in the presence of different OdhI variants was carried out using a photometric assay following NADH formation as described previously ([6], [8]).

Chain of His10-GlnHΔSP (GlnH) (Q8NM30 entry or part of it, stated change not applied): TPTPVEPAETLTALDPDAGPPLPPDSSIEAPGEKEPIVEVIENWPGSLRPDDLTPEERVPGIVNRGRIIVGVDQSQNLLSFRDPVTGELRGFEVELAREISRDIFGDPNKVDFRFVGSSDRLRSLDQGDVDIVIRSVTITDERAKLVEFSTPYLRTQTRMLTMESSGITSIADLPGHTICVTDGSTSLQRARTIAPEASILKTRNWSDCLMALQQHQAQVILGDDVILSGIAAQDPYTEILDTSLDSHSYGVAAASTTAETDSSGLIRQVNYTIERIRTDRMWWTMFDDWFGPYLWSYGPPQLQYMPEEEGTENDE
Chain of His10-GlnHcore (GlnH) (Q8NM30 entry or part of it): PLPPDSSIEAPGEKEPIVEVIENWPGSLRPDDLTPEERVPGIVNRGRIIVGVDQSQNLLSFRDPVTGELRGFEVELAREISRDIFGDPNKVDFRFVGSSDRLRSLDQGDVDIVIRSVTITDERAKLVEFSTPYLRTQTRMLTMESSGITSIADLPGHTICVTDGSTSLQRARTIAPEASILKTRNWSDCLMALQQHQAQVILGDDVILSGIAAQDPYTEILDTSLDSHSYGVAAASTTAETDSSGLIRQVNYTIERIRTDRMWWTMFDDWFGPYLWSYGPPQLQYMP

Take `O=C(O)CCC(=O)C(=O)O` [2-oxoglutarate]: at His10-GlnHΔSP (GlnH), the “binding to His10-GlnHΔSP” value is “no interaction”.

As for `CC[C@@H](CO)NCCN[C@@H](CC)CO` [Ethambutol], the “effect on glutamate secretion” value in the data set on C. glutamicum is listed as “trigger glutamate secretion”.

Take `NC(=O)C[C@H](N)C(=O)O` [L-asparagine]: the “binding to His10-GlnHΔSP” value on His10-GlnHΔSP (GlnH) is recorded as “no interaction”.

Consider `N[C@@H](CC(=O)O)C(=O)O` [L-aspartate], for which the “effect on thermal stability of GlnH” value with GlnH of C. glutamicum [1] is “increased the thermal stability”. The dissociation constant Kd – broadly, the constant that tells how readily two partners part at equilibrium – was 264 ± 14.6 µM at His10-GlnHΔSP (GlnH), 242 µM at His10-GlnHcore (GlnH), 4.8 ± 0.6 µM at M. tuberculosis GlnH and 0.55 ± 0.09 mM at GlnH of C. glutamicum [2]. In addition, the “mean observed enthalpy change” value at His10-GlnHΔSP (GlnH) is -18.5 ± 4.3 kJ/mol.

`N[C@@H](CCC(=O)O)C(=O)O` [L-glutamate]: the “effect on thermal stability of GlnH” value in the data set on GlnH of C. glutamicum [1] is “increased the thermal stability”. In addition, the equilibrium dissociation constant (Kd) on His10-GlnHΔSP (GlnH) is 1260 µM; on His10-GlnHcore (GlnH), 1460 µM; on M. tuberculosis GlnH, 15.2 ± 5.7 µM; on GlnH of C. glutamicum [2] it was 2.06 mM. Besides, the “mean observed enthalpy change” value at His10-GlnHΔSP (GlnH) was -17.5 ± 5.0 kJ/mol.

`NC(=O)CC[C@H](N)C(=O)O` [L-glutamine]: the “binding to His10-GlnHΔSP” value at His10-GlnHΔSP (GlnH) is listed as “no binding”.

B1: OdhI (natural protein)
chain: MSDNNGTPEPQVETTSVFRADLLKEMESSTGTAPASTGAENLPAGSALLVVKRGPNAGARFLLDQPTTTAGRHPESDIFLDDVTVSRRHAEFRINEGEFEVVDVGSLNGTYVNREPRNAQVMQTGDEIQIGKFRLVFLAGPAE
Molecule B1 came in with a residual ODH activity of cell-free extracts of C. glutamicum ΔodhI after adding 0.38 nM or 1.9 nM purified OdhI (activity without OdhI = 100%) in data set [3] of 3%.

B2: OdhI-R87A (natural protein)
chain: MSDNNGTPEPQVETTSVFRADLLKEMESSTGTAPASTGAENLPAGSALLVVKRGPNAGARFLLDQPTTTAGRHPESDIFLDDVTVSARHAEFRINEGEFEVVDVGSLNGTYVNREPRNAQVMQTGDEIQIGKFRLVFLAGPAE
Turning to B2, the “relative specific ODH activity (residual activity)” value in data set [4] (0.38 nM protein added) is 68.9%. The molecule further yielded a residual ODH activity of cell-free extracts of C. glutamicum ΔodhI after adding 0.38 nM or 1.9 nM purified OdhI-R87A (activity without OdhI = 100%) in data set [3] above 50%.

B3: OdhI-R87P (natural protein)
chain: MSDNNGTPEPQVETTSVFRADLLKEMESSTGTAPASTGAENLPAGSALLVVKRGPNAGARFLLDQPTTTAGRHPESDIFLDDVTVSPRHAEFRINEGEFEVVDVGSLNGTYVNREPRNAQVMQTGDEIQIGKFRLVFLAGPAE
As for B3, in data set [4] (0.38 nM protein added), the “relative specific ODH activity (residual activity)” value is given as 83.1%. In data set [3], this molecule registered a residual ODH activity of cell-free extracts of C. glutamicum ΔodhI after adding 0.38 nM or 1.9 nM purified OdhI-R87P (activity without OdhI = 100%) above 50%.

B4: OdhI: 15-kDa forkhead-associated (FHA) domain-containing protein of C. glutamicum that inhibits ODH; purified, untagged (protein)
chain: MSDNNGTPEPQVETTSVFRADLLKEMESSTGTAPASTGAENLPAGSALLVVKRGPNAGARFLLDQPTTTAGRHPESDIFLDDVTVSRRHAEFRINEGEFEVVDVGSLNGTYVNREPRNAQVMQTGDEIQIGKFRLVFLAGPAE
modifications: left off: His10, N-terminal, cleaved
Take B4: the “relative specific ODH activity (residual activity)” value in data set [4] (0.38 nM protein added) was 18.6%; in data set [4] (1.9 nM protein added), 3% and 3.1%.
